Calls of active or inactive are those of the source. No cut-off for these calls is given here.
Legend:
[1] = tested on: C6; test: Inhibition of cell proliferation of rat C6 cells assessed as cell viability after 72 hrs by sulforhodamine B assay; type: functional, cell-based; conditions: for IC50: C6, 72 h
[2] = tested on: U-251; test: Inhibition of cell proliferation of human U251 cells assessed as cell viability after 72 hrs by sulforhodamine B assay; type: functional, cell-based; conditions: for IC50: U-251, 72 h
[3] = tested on: U-251; test: Induction of necrosis in human U251 cells at 20 uM after 72 hrs propidium iodide staining based fluorescence microscopy; type: functional, cell-based
[4] = tested on: U-251; test: Inhibition of cell proliferation of human U251 cells assessed as cell viability at 100 uM after 72 hrs by sulforhodamine B assay; type: functional; conditions: U-251, 72 h, read-out: Activity
[5] = tested on: C6; test: Induction of apoptosis in rat C6 cells assessed as nuclear pyknosis at 2.5 uM after 72 hrs by DAPI staining based fluorescence microscopy; type: functional, cell-based
[6] = tested on: U-251; test: Induction of apoptosis in human U251 cells assessed as nuclear pyknosis at 20 uM after 72 hrs by DAPI staining based fluorescence microscopy; type: functional, cell-based
[7] = tested on: C6; test: Induction of necrosis in rat C6 cells at 2.5 uM after 72 hrs by propidium iodide staining based fluorescence microscopy; type: functional, cell-based
[8] = (§1) Inhibition of cell proliferation of human U87MG cells assessed as cell viability after 72 hrs by sulforhodamine B assay; type: functional, cell-based, U-87MG ATCC; conditions: U-87 MG
[9] = tested on: U-87MG ATCC; test: as §1; type: functional, cell-based
[10] = tested on: C6; test: Inhibition of cell proliferation of rat C6 cells assessed as cell viability at 100 uM after 72 hrs by sulforhodamine B assay; type: functional; conditions: C6, 72 h, read-out: Activity

IC50 [2] [µM] | Compound | IC50 [1] [µM] | Activity [3] | viability at 100 µM [4] [%] | Activity [5] | Activity [6] | Activity [7] | IC50 [8] [µM] | inhibition [1] | inhibition [2] | inhibition [9] | viability at 100 µM [10] [%]
29.5 | COc1cc(CCC(=O)OCCc2ccc(O)c(O)c2)ccc1O | 5.37 | Active | 48.4 | Active | Active | Active | – | – | – | – | –
> 200 | Cn1nnc2c(C(N)=O)ncn2c1=O [TEMOZOLOMIDE] | 60.5 | – | – | – | – | – | > 200 | – | – | – | –
– | C[C@@H]1O[C@@H](O[C@H]2[C@H](OC(=O)[C@]34CCC(C)(C)C[C@H]3C3=CC[C@@H]5[C@@]6(C)CC[C@H](O[C@@H]7O[C@H](CO[C@@H]8OC[C@H](O)[C@H](O)[C@H]8O[C@@H]8OC[C@@H](O)[C@H](O)[C@H]8O)[C@@H](O)[C@H](O)[C@H]7O)C(C)(C)[C@@H]6CC[C@@]5(C)[C@]3(C)CC4)O[C@H](CO)[C@@H](O)[C@@H]2O)[C@H](O)[C@H](O)[C@H]1O[C@@H]1OC[C@@H](O)[C@H](O[C@@H]2OC[C@@H](O)[C@H](O)[C@H]2O)[C@H]1O | – | – | 91.8 | – | – | – | – | inactive | inactive | inactive | 62.7
– | C[C@@H]1O[C@@H](OC[C@H]2O[C@@H](OC(=O)[C@]34CCC(C)(C)C[C@H]3C3=CC[C@@H]5[C@@]6(C)CC[C@H](O[C@@H]7O[C@H](CO[C@@H]8OC[C@H](O)[C@H](O)[C@H]8O[C@@H]8OC[C@@H](O)[C@H](O)[C@H]8O)[C@@H](O)[C@H](O)[C@H]7O)C(C)(C)[C@@H]6CC[C@@]5(C)[C@]3(C)CC4)[C@H](O[C@@H]3O[C@@H](C)[C@H](O[C@@H]4OC[C@@H](O)[C@H](O[C@@H]5OC[C@@H](O)[C@H](O)[C@H]5O)[C@H]4O)[C@@H](O)[C@H]3O)[C@@H](O)[C@@H]2O)[C@H](O)[C@H](O)[C@H]1O | – | – | 83.9 | – | – | – | – | inactive | inactive | inactive | 97.2
– | C[C@@H]1O[C@@H](O[C@H]2[C@H](OC(=O)[C@]34CCC(C)(C)C[C@H]3C3=CC[C@@H]5[C@@]6(C)CC[C@H](O[C@@H]7O[C@H](CO[C@@H]8OC[C@H](O)[C@H](O)[C@H]8O[C@@H]8OC[C@@H](O)[C@H](O)[C@H]8O)[C@@H](O)[C@H](O)[C@H]7O)C(C)(C)[C@@H]6CC[C@@]5(C)[C@]3(C)C[C@H]4O)O[C@H](CO)[C@@H](O)[C@@H]2O)[C@H](O[C@@H]2O[C@H](CO)[C@H](O)[C@H](O)[C@H]2O)[C@H](O)[C@H]1O[C@@H]1OC[C@@H](O)[C@H](O[C@@H]2OC[C@@H](O)[C@H](O)[C@H]2O)[C@H]1O | – | – | 130 | – | – | – | – | inactive | inactive | inactive | 61.5

Source: ChEMBL document CHEMBL3351906, “Bioactive triterpenoid saponins and phenolic compounds against glioma cells” (Bioorg Med Chem Lett, 2014)
